Data reported in patent publication US20150231093A1, “METHODS AND COMPOSITIONS FOR COUNTERMEASURES AGAINST RADIATION” (THE UNIVERSITY OF CHICAGO, priority 2014, published 2015).

Columns and labels:
[1] = tested on: SA-NH murine sarcoma cells; test: In vitro cell survival (colony) assay after 4 Gy, SA-NH cells; assay type: cell-based; details: 4 mM, 30 min prior to 4 Gy
Description: (§1) In Vitro Cell Survival Assay. […] Unirradiated cells served as controls. Immediately following irradiation, cells were counted, diluted, and known numbers seeded into 100-mm tissue culture dishes to allow the development of 50 to 150 colonies per dish. Colonies were stained with 20% crystal violet and scored 12 days after plating.

[2] = tested on: human microvascular endothelial cells (HMEC); test: In vitro cell survival (colony) assay after 4 Gy, HMEC; assay type: cell-based; details: 4 mM, 30 min prior to 4 Gy
Description: as §1

[3] = tested on: mouse embryo fibroblasts (MEF); test: In vitro cell survival (colony) assay after 4 Gy, MEF; assay type: cell-based; details: 4 mM, 30 min prior to 4 Gy
Description: as §1

[4] = Tolerability of the i.p. doses used in mice
Description: For in vivo studies, mice were injected i.p. with a final volume of 0.2 ml for all single and drug combinations used. […] Captopril was injected at a final concentration of 200 mg/kg body weight, MESNA was injected at a final concentration of 300 mg/kg body weight, and NAC was injected at a concentration of 400 mg/kg body weight.

[5] = 250 mg/kg i.p. 24 h following 7 Gy, counted 13 days after irradiation
mouse splenocytes = details: i.p. 24 h following 7 Gy; amifostine 400 mg/kg, metformin 250 mg/kg

NCCCNCCS [WR1065, 2-[(aminopropyl)amino] ethanethiol]
protection ratio [1]: 1.6
protection ratio [2]: 1.8
protection ratio [3]: 1.9

CC(=O)N[C@@H](CS)C(=O)O [NAC, N-acetyl-cysteine]
toxicity of dose used ([4]; 400 mg/kg body weight): non-toxic

C[C@H](CS)C(=O)N1CCC[C@H]1C(=O)O [Captopril, captopril]
toxicity of dose used ([4]; 200 mg/kg body weight): non-toxic

CN(C)C(=N)NC(=N)N.Cl [Metformin, 1,1-Dimethylbiguanide hydrochloride]
average number of spleen nodules [5]: 18
protection of irradiated animals (in words) (mouse splenocytes): significantly protected

O=S(=O)([O-])CCS.[Na+] [MESNA, sodium 2-sulfanylethanesulfonate]
toxicity of dose used ([4]; 300 mg/kg body weight): non-toxic
